# Read-outs that look alike come from different tables or passages of the source.
# Tests used:
# [1] = tested on: angiogenesis (neovascularization); settings: mice cornea model; dose levels of 210 mg/kg; cited from earlier work
# [2] = tested on: panel of over twenty (20) human cancer cell lines; assay: In vitro studies on a panel of human cancer cell lines; assay type: cell-based
# Text: In contrast, Karenitecin is a highly lipophilic camptothecin derivative characterized by substantial lactone stability and long plasma half-life. […] The free drug concentration in blood plasma is generally considered to be the pharmacologically active form in clinical pharmacology.
# [3] = tested on: Wild type human ovarian cancer cells (A2780/WT); assay: SRB cytotoxicity assay, inhibition of cell growth, A2780/WT; assay type: cell-based; settings: 2 hour treatment, SRB assay at 5 days
# Procedure: (§1) Wild type human ovarian cancer cells (A2780/WT) and doxorubicin resistant human ovarian cancer cells (A2780/DX5) were cultured in RPMI 1640 medium supplemented with 10% fetal bovine serum and 2 mM glutamine, and grown in a 37° C. incubator with 5% CO2. BNP1350 synthesized from camptothecin natural product (purchased from APAC) and BNP1350 synthesized via the Total Synthesis Scheme at BioNumerik Pharmaceuticals, Inc. were dissolved in DMSO for use in cytotoxicity experiments where inhibition of cell growth was measured using the SRB assay. Briefly, cells were seeded (450 cells/well in 100 μL volume) in a 96-well microtiter plates and allowed to attach for 24 hours prior to treatment with either natural product BNP1350 or total synthesis BNP1350 for 2 hours. Following this 2 hour treatment, BNP1350 was removed, the cells were washed with drug-free media (200 μL), and then drug-free media (200 μL) was added to the cells which were allowed to continue growing at 37° C. with 5% CO2 before the SRB assay was performed (total experimental time from the time of initial seeding was 5 days, during which 5 cell doublings occurred).
# [4] = tested on: doxorubicin resistant human ovarian cancer cells (A2780/DX5); assay: SRB cytotoxicity assay, inhibition of cell growth, A2780/DX5; assay type: cell-based; settings: for IC50: A2780/DX5, 2 hour treatment, SRB assay at 5 days; for Resistance Factor Ratio A2780/DX5 IC50/A2780WT IC50: ratio of average IC50 values
# Procedure: as §1
# [5] = sodium hydroxide formulation, hydrolysed E-ring; cited from earlier work
smiles,measurement,setting,value
"CCc1c2c(nc3ccc(OC(=O)N4CCC(N5CCCCC5)CC4)cc13)-c1cc3c(c(=O)n1C2)COC(=O)[C@]3(O)CC [Irinotecan, 7-ethyl-10-[4-(1-piperidino)-1-piperidino]carbonyloxy camptothecin]",neovascularization,[1],significant reduction
"CC[C@@]1(O)C(=O)OCc2c1cc1n(c2=O)Cc2c-1nc1ccccc1c2CC[Si](C)(C)C [Total Synthesis BNP1350, (4S)-4-ethyl-4-hydroxy-11-[2-(trimethylsilyl)ethyl]-1H-pyrano[3′:4′:6,7]indolizino[1,2-b]quinoline-3,14(4H,12H)-dione]",antitumor potency compared with Topotecan or SN-38,[2],significantly more potent
same,IC50,"[3]; Test 1, listed as Natural Product BNP1350, read-out: IC50 (nM) A2780/WT, Test 1",6.7 nM
same,IC50,"[3]; Test 1, read-out: IC50 (nM) A2780/WT, Test 1",6 nM
same,IC50,"[3]; Test 2, listed as Natural Product BNP1350, read-out: IC50 (nM) A2780/WT, Test 2",5.4 nM
same,IC50,"[3]; Test 2, read-out: IC50 (nM) A2780/WT, Test 2",6.8 nM
same,IC50,"[3]; average of Test 1 and Test 2, listed as Natural Product BNP1350, read-out: IC50 (nM) A2780/WT, Average",6.1 nM
same,IC50,"[3]; average of Test 1 and Test 2, read-out: IC50 (nM) A2780/WT, Average",6.4 nM
same,IC50,"[4]; Test 1, listed as Natural Product BNP1350, read-out: IC50 (nM) A2780/DX5, Test 1",8.9 nM
same,IC50,"[4]; Test 1, read-out: IC50 (nM) A2780/DX5, Test 1",11.9 nM
same,IC50,"[4]; Test 2, listed as Natural Product BNP1350, read-out: IC50 (nM) A2780/DX5, Test 2",11.6 nM
same,IC50,"[4]; Test 2, read-out: IC50 (nM) A2780/DX5, Test 2",11.7 nM
same,IC50,"[4]; average of Test 1 and Test 2, listed as Natural Product BNP1350, read-out: IC50 (nM) A2780/DX5, Average",10.3 nM
same,IC50,"[4]; average of Test 1 and Test 2, read-out: IC50 (nM) A2780/DX5, Average",11.8 nM
same,Resistance Factor Ratio A2780/DX5 IC50/A2780WT IC50,[4],1.8
same,Resistance Factor Ratio A2780/DX5 IC50/A2780WT IC50,[4]; listed as Natural Product BNP1350,1.7
CC[C@@](O)(C(=O)O)c1cc2n(c(=O)c1CO)Cc1cc3ccccc3nc1-2 [carboxylate form of CPT],anti-tumor potency relative to non-hydrolyzed lactone form of CPT,[5],one-tenth or less
